Assay results published in paper PMC4367813 (Current medicinal chemistry, 2012).
Like-named read-outs stand apart in the source and are kept apart here. Blank lines part the entries; values can stand above or below the compound they belong to. Residues, ends and D or L forms follow the SMILES beside them. *: point of attachment. Cbz = O=C(OCc1ccccc1)*

Columns and labels:
PRCP = conditions: read-out: PRCP IC50, cited from earlier work
carboxypeptidase A (CPA) = target: T1, carboxypeptidase A (CPA) (Bos taurus, UniProt P00730); assay: Specificity: carboxypeptidase A inhibition; format: biochemical
T1 sequence (P00730 111-419): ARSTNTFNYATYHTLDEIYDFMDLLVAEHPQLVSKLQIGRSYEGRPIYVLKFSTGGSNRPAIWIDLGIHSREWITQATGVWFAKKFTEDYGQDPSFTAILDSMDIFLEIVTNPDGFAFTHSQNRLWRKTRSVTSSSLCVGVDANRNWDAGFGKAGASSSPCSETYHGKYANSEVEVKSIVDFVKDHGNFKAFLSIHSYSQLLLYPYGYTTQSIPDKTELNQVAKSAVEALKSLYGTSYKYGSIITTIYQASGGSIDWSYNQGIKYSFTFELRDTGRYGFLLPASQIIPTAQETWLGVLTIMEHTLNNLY

carboxypeptidase M (CPM) = target: T2, carboxypeptidase M (CPM) (Homo sapiens, UniProt P14384); assay: Specificity: carboxypeptidase M inhibition; format: biochemical; conditions: Table 5, NE = no effect
T2 sequence (P14384 18-443): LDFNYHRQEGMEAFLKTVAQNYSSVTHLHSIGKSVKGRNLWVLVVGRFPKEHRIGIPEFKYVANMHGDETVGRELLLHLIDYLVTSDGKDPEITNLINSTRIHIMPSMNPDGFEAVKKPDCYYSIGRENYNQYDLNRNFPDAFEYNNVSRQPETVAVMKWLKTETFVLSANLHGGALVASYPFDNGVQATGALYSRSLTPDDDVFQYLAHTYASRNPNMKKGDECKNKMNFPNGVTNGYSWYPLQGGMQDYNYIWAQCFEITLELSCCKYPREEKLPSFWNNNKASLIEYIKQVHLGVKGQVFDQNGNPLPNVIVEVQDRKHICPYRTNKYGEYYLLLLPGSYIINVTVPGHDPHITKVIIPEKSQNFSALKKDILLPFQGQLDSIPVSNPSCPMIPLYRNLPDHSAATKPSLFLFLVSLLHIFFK

carboxypeptidase B (CPB) = target: T3, carboxypeptidase B (CPB) (Sus scrofa, UniProt P09955); assay: Specificity: carboxypeptidase B inhibition; format: biochemical; conditions: Table 5, NE = no effect
T3 sequence (P09955 111-416): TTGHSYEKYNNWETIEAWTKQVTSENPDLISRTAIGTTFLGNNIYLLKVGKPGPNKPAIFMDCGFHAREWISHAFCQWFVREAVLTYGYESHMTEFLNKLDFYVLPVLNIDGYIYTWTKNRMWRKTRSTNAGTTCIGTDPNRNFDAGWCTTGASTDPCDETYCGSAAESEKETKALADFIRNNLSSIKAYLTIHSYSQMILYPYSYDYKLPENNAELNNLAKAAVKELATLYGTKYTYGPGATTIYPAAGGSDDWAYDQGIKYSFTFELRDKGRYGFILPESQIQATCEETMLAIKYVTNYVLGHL

[1] = target: T4, carboxypeptidase N (hCPN, partially purified from plasma) (Homo sapiens, UniProt P15169); assay: Specificity: carboxypeptidase N inhibition; format: biochemical; conditions: Table 5, NE = no effect
T4 sequence (P15169 21-458): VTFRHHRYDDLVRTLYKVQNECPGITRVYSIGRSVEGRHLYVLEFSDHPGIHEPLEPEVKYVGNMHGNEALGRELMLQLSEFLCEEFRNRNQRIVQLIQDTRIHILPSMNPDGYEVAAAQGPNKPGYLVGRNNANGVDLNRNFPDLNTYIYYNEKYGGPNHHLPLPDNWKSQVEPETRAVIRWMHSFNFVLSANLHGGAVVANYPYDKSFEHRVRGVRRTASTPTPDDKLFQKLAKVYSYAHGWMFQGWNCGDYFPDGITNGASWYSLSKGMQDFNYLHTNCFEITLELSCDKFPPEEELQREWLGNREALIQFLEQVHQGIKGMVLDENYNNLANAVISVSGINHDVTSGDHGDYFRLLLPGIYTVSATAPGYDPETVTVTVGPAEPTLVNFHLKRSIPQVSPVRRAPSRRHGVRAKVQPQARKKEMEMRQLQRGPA
T4 sequence (P22792 22-545 partner): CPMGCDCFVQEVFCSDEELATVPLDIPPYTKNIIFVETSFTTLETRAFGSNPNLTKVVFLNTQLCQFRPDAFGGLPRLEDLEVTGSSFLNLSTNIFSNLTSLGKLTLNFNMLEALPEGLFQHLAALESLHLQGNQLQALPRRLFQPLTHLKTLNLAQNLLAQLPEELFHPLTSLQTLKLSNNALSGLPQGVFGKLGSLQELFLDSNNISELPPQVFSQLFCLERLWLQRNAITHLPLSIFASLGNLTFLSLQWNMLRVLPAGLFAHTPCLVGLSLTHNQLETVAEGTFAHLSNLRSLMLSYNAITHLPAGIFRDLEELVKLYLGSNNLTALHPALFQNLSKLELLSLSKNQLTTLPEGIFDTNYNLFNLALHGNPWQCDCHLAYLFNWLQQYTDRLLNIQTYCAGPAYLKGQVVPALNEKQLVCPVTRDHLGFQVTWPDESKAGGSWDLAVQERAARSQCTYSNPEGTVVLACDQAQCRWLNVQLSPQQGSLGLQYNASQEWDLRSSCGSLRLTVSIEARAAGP

NO formation on HPAEC = assay: PRCP-induced nitric oxide formation on HPAEC; format: cell-based, human; conditions: HPAEC with HK/PK complexes, 100 µM
[2] = tested on: PGI2 (6-keto prostaglandin F1α) release from HPAEC; assay: PRCP-induced 6-keto prostaglandin F1α release from HPAEC; format: cell-based, human; conditions: HPAEC with HK/PK complexes, 100 µM
food intake in mice = conditions: fasted mice
recombinant PRCP (rPRCP) = target: T5, recombinant PRCP (rPRCP) (Homo sapiens, UniProt P42785); assay: rPRCP activity, cleavage of chromogenic substrate APpNA; format: biochemical; conditions: 1 mM APpNA, 60 min; NE = no effect
T5 sequence (P42785 46-496): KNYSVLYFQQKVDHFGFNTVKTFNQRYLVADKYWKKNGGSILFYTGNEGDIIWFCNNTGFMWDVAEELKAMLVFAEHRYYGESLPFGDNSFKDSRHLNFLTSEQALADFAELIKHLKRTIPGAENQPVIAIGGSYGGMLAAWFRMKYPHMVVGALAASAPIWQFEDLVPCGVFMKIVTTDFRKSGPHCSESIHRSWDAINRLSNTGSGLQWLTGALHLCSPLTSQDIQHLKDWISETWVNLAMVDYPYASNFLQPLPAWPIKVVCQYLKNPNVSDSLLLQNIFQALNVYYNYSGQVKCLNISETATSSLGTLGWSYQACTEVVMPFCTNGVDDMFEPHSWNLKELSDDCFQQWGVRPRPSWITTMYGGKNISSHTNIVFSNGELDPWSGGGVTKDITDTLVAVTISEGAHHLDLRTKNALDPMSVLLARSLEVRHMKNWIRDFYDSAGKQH

[3] = target: PRCP-dependent prekallikrein (PK) activation on HPAEC; assay: PRCP-dependent PK activation on HPAEC; format: cell-based, human; conditions: 20 nM HK, 20 nM PK; NE = no effect
[4] = mice, Compound 3 (400 µM), within 8 hours of administration

SMILES: O=C[C@@H]1CCCN1C(=O)[C@@H]1CCCN1C(=O)OCc1ccccc1 (Cbz-Pro-Pro-aldehyde)
- IC50 (PRCP): > 1000 µM

- Ki (carboxypeptidase A (CPA)): 486 µM
- Ki (carboxypeptidase M (CPM); Ki CPM): 394 µM
SMILES: c1cnc2c(c1)ccc1cccnc12 [1,10-Phenanthroline, 1,10-phenanthroline, reference compound]

SMILES: CCCCCCCCCCCCNC(=O)[C@@H]1CCCN1C(=O)[C@@H]1CCCN1 [Compound 3, (S)-N-dodecyl-1-((S)-pyrrolidine-2-carbonyl) pyrrolidine-2-carboxamide]
- Ki CPA (carboxypeptidase A (CPA); Table 5, NE = no effect): not inhibited
- Ki (carboxypeptidase A (CPA); read-out: Ki CPA, Table 5, NE = no effect): > 1000 µM
- Ki CPB (carboxypeptidase B (CPB)): not inhibited
- Ki (carboxypeptidase B (CPB); read-out: Ki CPB): > 1000 µM
- Ki CPN [1]: did not inhibit
- Ki ([1]; read-out: Ki CPN): > 1000 µM
- Ki CPM (carboxypeptidase M (CPM)): did not inhibit
- Ki (carboxypeptidase M (CPM); read-out: Ki CPM): > 1000 µM
- reduction of NO production (NO formation on HPAEC): 80%
- reduction of PGI2 production [2]: 80%
- food intake (food intake in mice; 1 mg/kg ip, 1-24 h): lower food intake, although the reduction was not significant at 2, 4, 8, or 24 h
- food intake (food intake in mice; 10 mg/kg ip, all time intervals 1-24 h, P < 0.05 vs saline): Significant declines in food intake
- time at which attenuation of food intake started (food intake in mice; ip): ≤ 1 h
- ALB (Metabolic panel; [4]): 3.9
- ALP (Metabolic panel; [4]): 93
- ALT (Metabolic panel; [4]): 33
- AMY (Metabolic panel; [4]): 1041
- BUN (Metabolic panel; [4]): 19
- CRE (Metabolic panel; [4]): 0.3
- Ca^2+ (Metabolic panel; [4]): 9.9
- GLOB (Metabolic panel; [4]): 1.5
- GLU (Metabolic panel; [4]): 165
- K+ (Metabolic panel; [4]): 5.4
- Na+ (Metabolic panel; [4]): 151
- PHOS (Metabolic panel; [4]): 8.0
- TBIL (Metabolic panel; [4]): 0.4
- TP (Metabolic panel; [4]): 5.3
- changes in electrolyte levels, or markers of kidney and liver function (Metabolic panel; mice, within 8 hours of administration): did not cause significant changes
- decrease in blood glucose levels (Metabolic panel; treated mice, n=3, P = 0.26): 15%

- rPRCP Ki (recombinant PRCP (rPRCP)): little effect
- PRCP-Dependent PK Activation on HPAEC Ki [3]: little effect
SMILES: O=C[C@@H]1CCCN1C(=O)[C@@H]1CCCN1C(=O)OCc1ccccc1 [z-Pro-Prolinal, 1-[1-(benzyloxycarbonyl)-L-prolyl] prolinal] (Cbz-Pro-Pro-aldehyde)
- IC50 (PRCP; listed as Z-Pro-Pro-OH): > 2000 µM
